Data: US8338422B2, “Indolin-2-ones and aza-indolin-2-ones” (Janssen Pharmaceutica NV, priority 2007, dated 2012)

What was measured:
GSK3β (h) = GSK3β (h) (Homo sapiens, UniProt P49841); assay: GSK-3β human kinase assay (SPA); type: biochemical; conditions: read-out: GSK3B pIC50 (converted)
Method in brief: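 Radiometric SPA read-out: after EDTA stop, biotinylated 33P-labelled peptide bound streptavidin PVT beads and was imaged on Leadseeker. Reaction: 60 min, room temperature, GSK3β (h) at 1 μg/ml, 1 μM substrate peptide, 1 μM ATP with 2 nM [γ-33P]ATP, Tris pH 7.4/MgCl2/DTT buffer.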

AuroraB (h) = AuroraB (h) (Homo sapiens, UniProt Q96GD4); assay: Aurora-B human kinase assay (SPA); type: biochemical; conditions: read-out: AuroraB pIC50 (converted)
Chain of AuroraB (h) (Q96GD4 whole entry): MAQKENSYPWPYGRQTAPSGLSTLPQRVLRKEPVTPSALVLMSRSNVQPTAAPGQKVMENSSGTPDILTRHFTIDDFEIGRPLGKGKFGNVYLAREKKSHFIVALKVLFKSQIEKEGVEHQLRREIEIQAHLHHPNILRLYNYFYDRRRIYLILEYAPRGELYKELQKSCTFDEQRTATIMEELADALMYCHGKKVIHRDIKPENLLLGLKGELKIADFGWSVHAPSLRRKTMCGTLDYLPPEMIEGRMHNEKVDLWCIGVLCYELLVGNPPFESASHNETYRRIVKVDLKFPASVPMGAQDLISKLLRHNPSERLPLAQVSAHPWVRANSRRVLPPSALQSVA
Method in brief: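 33P-phosphorylated biotin-substrate captured on streptavidin PVT SPA beads after EDTA-containing stop and imaged on Leadseeker. Reaction: 60 min at room temperature, Hepes pH 7.5 with Mg2+/Mn2+. Conditions: 0.5 μM ATP plus 2.2 nM [γ-33P]ATP, 3 μM substrate, 0.5 μg/ml human AuroraB.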

CDK1/CyclinB (h) = CDK1/CyclinB (h) (Homo sapiens, UniProt P06493); assay: CDK1/CyclinB human kinase assay (FRET); type: biochemical; conditions: read-out: CDK1 pIC50 (converted)
Chain of CDK1/CyclinB (h) (P06493 whole entry): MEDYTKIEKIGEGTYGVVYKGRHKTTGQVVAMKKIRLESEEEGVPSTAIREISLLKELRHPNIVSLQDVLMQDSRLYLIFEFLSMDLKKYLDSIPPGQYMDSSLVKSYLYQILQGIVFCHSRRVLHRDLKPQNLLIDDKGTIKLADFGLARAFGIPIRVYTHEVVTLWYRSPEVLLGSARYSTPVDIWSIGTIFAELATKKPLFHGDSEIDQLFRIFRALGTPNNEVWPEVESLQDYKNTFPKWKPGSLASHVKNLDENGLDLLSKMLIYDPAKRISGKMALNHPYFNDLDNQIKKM
Chain of CDK1/CyclinB (h) (P14635 whole entry partner): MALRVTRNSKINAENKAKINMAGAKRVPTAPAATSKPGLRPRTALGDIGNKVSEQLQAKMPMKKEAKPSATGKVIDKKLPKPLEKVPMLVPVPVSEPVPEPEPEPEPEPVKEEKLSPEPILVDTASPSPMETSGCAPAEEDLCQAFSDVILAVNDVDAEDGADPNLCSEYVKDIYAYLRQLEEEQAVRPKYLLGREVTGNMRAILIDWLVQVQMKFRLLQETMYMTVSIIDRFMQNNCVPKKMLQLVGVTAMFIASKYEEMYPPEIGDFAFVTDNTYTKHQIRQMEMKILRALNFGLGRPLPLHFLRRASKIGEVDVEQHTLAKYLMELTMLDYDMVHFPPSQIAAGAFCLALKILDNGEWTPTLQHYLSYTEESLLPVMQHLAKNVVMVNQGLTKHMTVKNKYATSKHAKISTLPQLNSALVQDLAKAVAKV
Method in brief: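 Kinase activity was read as the 460/538 nm emission ratio after protease cleavage of unphosphorylated peptide (60 min development). The reaction ran 60 min at room temperature with 10 μM ATP, 2 μM Ser/Thr peptide 12 and 0.2 μg/ml enzyme in Hepes pH 7.5 buffer with MgCl2, EGTA, Brij-35.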

PLK4 (h) = PLK4 (h) (Homo sapiens, UniProt O00444); assay: PLK-4 human kinase assay (SPA); type: biochemical; conditions: read-out: PLK4 pIC50 (converted)
Chain of PLK4 (h) (O00444 whole entry): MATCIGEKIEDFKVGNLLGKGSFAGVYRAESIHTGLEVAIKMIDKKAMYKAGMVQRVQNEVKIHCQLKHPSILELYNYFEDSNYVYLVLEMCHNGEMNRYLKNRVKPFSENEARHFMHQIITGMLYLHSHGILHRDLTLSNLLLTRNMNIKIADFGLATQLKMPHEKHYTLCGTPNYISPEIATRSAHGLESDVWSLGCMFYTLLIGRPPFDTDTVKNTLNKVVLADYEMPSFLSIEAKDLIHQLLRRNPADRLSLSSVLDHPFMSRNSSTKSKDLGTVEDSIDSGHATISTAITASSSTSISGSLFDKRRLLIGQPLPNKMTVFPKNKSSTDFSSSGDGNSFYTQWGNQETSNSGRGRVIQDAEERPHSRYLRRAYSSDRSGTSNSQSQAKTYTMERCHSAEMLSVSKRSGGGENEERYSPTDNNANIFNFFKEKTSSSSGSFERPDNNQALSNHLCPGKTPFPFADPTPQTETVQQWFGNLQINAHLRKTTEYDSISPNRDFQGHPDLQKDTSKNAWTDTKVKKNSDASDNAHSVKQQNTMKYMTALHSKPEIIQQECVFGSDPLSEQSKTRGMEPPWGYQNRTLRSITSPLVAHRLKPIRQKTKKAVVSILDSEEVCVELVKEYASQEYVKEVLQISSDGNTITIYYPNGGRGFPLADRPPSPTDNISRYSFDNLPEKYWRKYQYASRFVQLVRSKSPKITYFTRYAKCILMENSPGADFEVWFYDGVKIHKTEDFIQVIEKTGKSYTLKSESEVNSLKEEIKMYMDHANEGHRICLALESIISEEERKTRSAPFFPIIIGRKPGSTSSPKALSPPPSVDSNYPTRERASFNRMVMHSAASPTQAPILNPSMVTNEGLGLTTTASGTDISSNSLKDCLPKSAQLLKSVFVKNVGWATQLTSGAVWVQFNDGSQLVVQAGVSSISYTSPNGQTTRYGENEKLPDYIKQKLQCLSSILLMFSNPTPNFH
Method in brief: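 Radiometric readout: 33P-labelled peptide captured on streptavidin SPA beads after EDTA stop, imaged by Leadseeker. Reaction ran 60 min at room temperature in Hepes pH 8.0 buffer. It contained 1 μM ATP with 2 nM [γ-33P]ATP, 10 μM biotinylated peptide and PLK4 (h) at 19 μg/ml.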

DU-145 = assay: Cellular proliferation assay (Alamar blue), DU-145; type: cell-based; conditions: Homo sapiens, DU-145 cells, 72 hours with compound, 10% FCS, read-out: pIC50 DU-145 (converted)
Protocol: (§1) […] functional properties of these compounds was tested in cellular proliferation assays on a panel of different cell lines in the presence of 10% FCS serum (37° C. and 5% (v/v) CO2). In a first step these cells were seeded and incubated for 24 hours in the absence of compound. In the second step the cells were incubated for 72 hours with the compounds to be tested for 72 hours. The viable cell number was finally assessed in a standard Alamar blue cell viability assay.
(§2) The viable cell number was assessed by incubation for either 4 h (HCT-116, H1299, H460) 6 h (SKOV3, HT29, U87-MG, Colo205) or 24 h (A2780, PC3, MDA-MB-231, A549, MCF-7) with Alamar blue (Resazurin 9 μg/ml, K-Ferrocyanide 90 μM K-Ferricyanide 90 μM) and the converted fluorescent product was quantified on a fluorescent plate readed (544 nm/590 nm). Effect of the compounds is calculated as of on control cells.

H1299 = assay: Cellular proliferation assay (Alamar blue), H1299; type: cell-based; conditions: Homo sapiens, NCI-H1299, 72 h, H1299 cells, 72 hours with compound, 10% FCS, read-out: pIC50 H1299 (converted)
Method in brief: (§3)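 Proliferation was assessed over 72 h of compound treatment, following 24 h of seeding without compound, under 10% FCS, 37° C. and 5% CO2. Fluorescent resazurin product was measured and compared with control cells.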

H460 = assay: Cellular proliferation assay (Alamar blue), H460; type: cell-based; conditions: Homo sapiens, NCI-H460, H460 cells, 72 hours with compound, 10% FCS, read-out: pIC50 H460 (converted)
Protocol: as §1, §2

A431 = assay: Cellular proliferation assay (Alamar blue), A431; type: cell-based; conditions: Homo sapiens, A-431, A431 cells, 72 hours with compound, 10% FCS, read-out: pIC50 A431 (converted)
Protocol: as §1, §2

HCT-116 = assay: Cellular proliferation assay (Alamar blue), HCT-116; type: cell-based; conditions: Homo sapiens, HCT-116, 72 h, HCT-116 cells, 72 hours with compound, 10% FCS, read-out: pIC50 HCT-116 (converted)
Method in brief: as §3

A549 = assay: Cellular proliferation assay (Alamar blue), A549; type: cell-based; conditions: Homo sapiens, A549 cells, 72 hours with compound, 10% FCS, read-out: pIC50 A549 (converted)
Protocol: as §1, §2

PC-3 = assay: Cellular proliferation assay (Alamar blue), PC-3; type: cell-based; conditions: Homo sapiens, PC-3, 72 h, PC-3 cells, 72 hours with compound, 10% FCS, read-out: pIC50 PC-3 (converted)
Method in brief: as §3

Colo205 = assay: Cellular proliferation assay (Alamar blue), Colo205; type: cell-based; conditions: Homo sapiens, COLO 205, Colo205 cells, 72 hours with compound, 10% FCS, read-out: pIC50 Colo205 (converted)
Protocol: as §1, §2

MDA/MB231 = assay: Cellular proliferation assay (Alamar blue), MDA/MB231; type: cell-based; conditions: Homo sapiens, MDA-MB-231, 72 h, MDA/MB231 cells, 72 hours with compound, 10% FCS, read-out: pIC50 MDA/MB231 (converted)
Method in brief: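 Seed cells, 24 h, no compound; add compound, 72 h, 10% FCS, 37° C./5% CO2; add resazurin 9 μg/ml with K-ferrocyanide and K-ferricyanide 90 μM each (4 h H460, 24 h MDA-MB-231); read fluorescence 544/590 nm; effect vs control cells.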

SKOV3 = assay: Cellular proliferation assay (Alamar blue), SKOV3; type: cell-based; conditions: Homo sapiens, SK-OV-3, SKOV3 cells, 72 hours with compound, 10% FCS, read-out: pIC50 SKOV3 (converted)
Protocol: as §1, §2

HT-29 = assay: Cellular proliferation assay (Alamar blue), HT-29; type: cell-based; conditions: Homo sapiens, HT-29 cells, 72 hours with compound, 10% FCS, read-out: pIC50 HT-29 (converted)
Protocol: as §1, §2

SK-N-SH = assay: Cellular proliferation assay (Alamar blue), SK-N-SH; type: cell-based; conditions: Homo sapiens, SK-N-SH cells, 72 hours with compound, 10% FCS, read-out: pIC50 SK-N-SH (converted)
Protocol: as §1, §2

MCF-7 = assay: Cellular proliferation assay (Alamar blue), MCF-7; type: cell-based; conditions: Homo sapiens, MCF7, MCF-7 cells, 72 hours with compound, 10% FCS, read-out: pIC50 MCF-7 (converted)
Protocol: as §1, §2

Chain of GSK3β (h) (P49841 whole entry): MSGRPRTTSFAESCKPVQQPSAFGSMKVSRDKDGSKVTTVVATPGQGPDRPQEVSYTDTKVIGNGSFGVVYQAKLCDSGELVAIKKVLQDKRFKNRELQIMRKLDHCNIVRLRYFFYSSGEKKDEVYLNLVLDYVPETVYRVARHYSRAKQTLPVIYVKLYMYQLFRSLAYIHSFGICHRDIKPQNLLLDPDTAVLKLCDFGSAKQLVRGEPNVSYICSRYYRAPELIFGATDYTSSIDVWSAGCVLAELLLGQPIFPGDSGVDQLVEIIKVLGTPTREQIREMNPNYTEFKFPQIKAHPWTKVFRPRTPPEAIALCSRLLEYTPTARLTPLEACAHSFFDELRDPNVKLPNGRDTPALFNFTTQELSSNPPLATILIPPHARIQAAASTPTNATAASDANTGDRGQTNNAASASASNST

Compound	IC50 (GSK3β (h)) [µM]	IC50 (AuroraB (h)) [µM]	IC50 (CDK1/CyclinB (h)) [µM]	melting point [°C]	IC50 (PLK4 (h)) [µM]	IC50 (DU-145) [µM]	IC50 (H1299) [µM]	IC50 (H460) [µM]	IC50 (A431) [µM]	IC50 (HCT-116) [µM]	IC50 (A549) [µM]	IC50 (PC-3) [µM]	IC50 (Colo205) [µM]	IC50 (MDA/MB231) [µM]	IC50 (SKOV3) [µM]	IC50 (HT-29) [µM]	IC50 (SK-N-SH) [µM]	IC50 (MCF-7) [µM]
CN1CCCC(=O)NCC#Cc2cccc3c2/C(=C/Nc2cccc(c2)S(=O)(=O)N(C)CC1=O)C(=O)N3 [Compound 3]	1.86	> 10	> 10	> 240	3.16	–	–	–	–	–	–	–	–	–	–	–	–	–
CN1CC(=O)N(CCN2CCOCC2)CCC(=O)NCC#Cc2cccc3c2/C(=C/Nc2cccc(c2)S1(=O)=O)C(=O)N3 [Compound 5]	8.13	8.32	> 10	> 240	4.17	–	–	–	–	–	–	–	–	–	–	–	–	–
O=C1Nc2ncnc3c2/C1=C/Nc1ccc(c(F)c1)OCCCCCC(=O)N1CCN3CC1 [Compound 22]	–	> 10	–	–	> 10	> 10	> 10	> 10	> 10	> 10	> 10	> 10	> 10	> 10	> 10	> 10	> 10	> 10
